Measurements: patent US6635771B2, “N-benzhydryl indole compounds” (Wyeth, priority 2001, dated 2003)

Target: T1, cPLA2 (Homo sapiens, UniProt P47712)
T1 sequence (P47712 1-749): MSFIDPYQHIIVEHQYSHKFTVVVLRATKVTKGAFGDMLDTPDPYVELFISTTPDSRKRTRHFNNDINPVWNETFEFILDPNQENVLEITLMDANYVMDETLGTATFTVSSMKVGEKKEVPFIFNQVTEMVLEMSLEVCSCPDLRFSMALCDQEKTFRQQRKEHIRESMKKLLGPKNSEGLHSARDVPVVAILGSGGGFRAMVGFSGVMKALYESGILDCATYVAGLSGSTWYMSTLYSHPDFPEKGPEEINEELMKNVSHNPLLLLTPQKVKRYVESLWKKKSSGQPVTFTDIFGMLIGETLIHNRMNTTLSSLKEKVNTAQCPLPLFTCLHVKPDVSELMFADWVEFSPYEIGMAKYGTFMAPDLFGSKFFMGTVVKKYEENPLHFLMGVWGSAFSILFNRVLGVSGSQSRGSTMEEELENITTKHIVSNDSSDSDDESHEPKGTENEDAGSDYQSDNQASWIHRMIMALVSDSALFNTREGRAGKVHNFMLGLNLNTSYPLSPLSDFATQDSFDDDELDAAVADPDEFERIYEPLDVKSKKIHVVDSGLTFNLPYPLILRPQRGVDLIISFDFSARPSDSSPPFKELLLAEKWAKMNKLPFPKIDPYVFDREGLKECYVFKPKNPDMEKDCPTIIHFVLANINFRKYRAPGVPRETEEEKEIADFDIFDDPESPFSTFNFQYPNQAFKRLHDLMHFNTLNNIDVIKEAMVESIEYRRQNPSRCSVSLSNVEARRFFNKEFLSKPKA
Experiment: Coumarine Assay
Type: biochemical
Settings: 60 μM 7-hydroxycoumarinyl 6-heptenoate substrate, 4 μg cPLA2, pH 7.5, fluorescence ex 360 nm / em 460 nm; read-out: Coumarin IC50

| IC50 [µM] | SMILES |
| --- | --- |
| 0.28 | O=C(O)c1ccc(OCCc2c(CCNS(=O)(=O)Cc3c(F)cccc3F)n(C(c3ccccc3)c3ccccc3)c3ccc(Cl)cc23)cc1 [Example 74] |
| 0.4 | O=C(O)c1ccc(OCCc2c(CCNS(=O)(=O)Cc3ccc(Cl)nc3)n(C(c3ccccc3)c3ccccc3)c3ccc(Cl)cc23)cc1 [Example 75, 4-(2-{1-benzhydryl-5-chloro-2-[2-({[(6-chloro-3-pyridinyl)methyl]sulfonyl}amino)ethyl]-1H-indol-3-yl}ethoxy)benzoic acid] |
| 0.48 | COc1cccc(CS(=O)(=O)NCCc2c(CCOc3ccc(C(=O)O)cc3)c3cc(Cl)ccc3n2C(c2ccccc2)c2ccccc2)c1 [Example 77, 4-{2-[1-Benzhydryl-5chloro-2-(2-{[(3-methoxybenzyl)sulfonyl]amino}ethyl)-1H-indol-3-yl]ethoxy}benzoic acid] |
| 0.34 | Cc1cc(C)cc(CS(=O)(=O)NCCc2c(CCOc3ccc(C(=O)O)cc3)c3cc(Cl)ccc3n2C(c2ccccc2)c2ccccc2)c1 [Example 78, 4-{2-[1-Benzhydryl-5-chloro-2-(2-{[(3,5-dimethylbenzyl)sulfonyl]amino}ethyl)-1H-indol-3-yl]ethoxy)benzoic acid] |
| 0.15 | Cc1ccccc1CS(=O)(=O)NCCc1c(CCOc2ccc(C(=O)O)cc2)c2cc(Cl)ccc2n1C(c1ccccc1)c1ccccc1 [Example 79, 4-{2-[1-Benzhydryl-5-chloro-2-(2-{[(2-methylbenzyl)sulfonyl]amino}ethyl)-1H-indol3-yl]ethoxy}benzoic acid] |
| 0.47 | O=C(O)c1ccc(OCCc2c(CCNS(=O)(=O)CSc3ccccc3)n(C(c3ccccc3)c3ccccc3)c3ccc(Cl)cc23)cc1 [Example 81, 4-(2-{1-benzhydryl-5-chloro-2-[2-({[(phenylsulfanyl)methyl]sulfonyl}amino)ethyl]-1H-indol-3-yl}ethoxy)benzoic acid] |
| 0.5 | Cc1cccc(C)c1SCS(=O)(=O)NCCc1c(CCOc2ccc(C(=O)O)cc2)c2cc(Cl)ccc2n1C(c1ccccc1)c1ccccc1 [Example 82] |
| 0.5 | Cc1cccc(Cl)c1SCS(=O)(=O)NCCc1c(CCOc2ccc(C(=O)O)cc2)c2cc(Cl)ccc2n1C(c1ccccc1)c1ccccc1 [Example 84] |
| 0.4 | O=C(O)c1ccc(OCCc2c(CCNS(=O)(=O)CSc3cc(Cl)cc(Cl)c3)n(C(c3ccccc3)c3ccccc3)c3ccc(Cl)cc23)cc1 [Example 85] |
| 0.6 | COc1ccc(SCS(=O)(=O)NCCc2c(CCOc3ccc(C(=O)O)cc3)c3cc(Cl)ccc3n2C(c2ccccc2)c2ccccc2)cc1OC [Example 86] |
| 1.2 | O=C(O)c1ccc(OCCc2c(CCNS(=O)(=O)CCN3CCOCC3)n(C(c3ccccc3)c3ccccc3)c3ccc(Cl)cc23)cc1 [Example 87, 4-(2-{1-Benzhydryl-5-chloro-2-[2-(2-morpholin-4-ylethanesulfonylamino)-ethyl]-1H-indol-3-yl}-ethoxy)-benzoic acid] |
| 0.38 | O=C(O)c1ccc(OCCc2c(CCNS(=O)(=O)CCNc3ccccc3)n(C(c3ccccc3)c3ccccc3)c3ccc(Cl)cc23)cc1 [Example 89, 4-(2-{1-Benzhydryl-5-chloro-2-[2-(2-phenylamino-ethanesulfonylamino)-ethyl]-1H-indol-3-yl}-ethoxy)-benzoic acid] |
| 0.65 | O=C(O)c1ccc(OCCc2c(CCNS(=O)(=O)CCN3CCC4(CC3)OCCO4)n(C(c3ccccc3)c3ccccc3)c3ccc(Cl)cc23)cc1 [Example 90, 4-(2-{1-benzhydryl-5-chloro-2-[2-({[2-(1,4-dioxa-8-azaspiro[4.5]dec-8-yl)ethyl]sulfonyl}amino)ethyl]-1H-indol-3-yl}ethoxy)benzoic acid] |
| 0.5 | O=C(O)c1ccc(OCCc2c(CCNS(=O)(=O)CCN3CCN(c4ccccn4)CC3)n(C(c3ccccc3)c3ccccc3)c3ccc(Cl)cc23)cc1 [Example 91, 4-[2-(1-benzhydryl-5-chloro-2-{2-[({2-[4-(2-pyridinyl)-1-piperazinyl]ethyl}sulfonyl)amino]ethyl}-1H-indol-3-yl)ethoxy]benzoic acid] |
| 0.56 | Cc1cc(C)n(CCS(=O)(=O)NCCc2c(CCOc3ccc(C(=O)O)cc3)c3cc(Cl)ccc3n2C(c2ccccc2)c2ccccc2)n1 [Example 93, 4-(2-{1-benzhydryl-5-chloro-2-[2-({[2-(3,5-dimethyl-1H-pyrazol-1-yl)ethyl]sulfonyl}amino)ethyl]-1H-indol-3-yl}ethoxy)benzoic acid] |
| 0.8 | Cc1ccn(CCS(=O)(=O)NCCc2c(CCOc3ccc(C(=O)O)cc3)c3cc(Cl)ccc3n2C(c2ccccc2)c2ccccc2)n1 [Example 94, 4-(2-{1-benzhydryl-5-chloro-2-[2-({[2-(3-methyl-1H-pyrazol-1-yl)ethyl]sulfonyl}amino)ethyl]-1H-indol-3-yl}ethoxy)benzoic acid] |
| 0.85 | Cc1cnn(CCS(=O)(=O)NCCc2c(CCOc3ccc(C(=O)O)cc3)c3cc(Cl)ccc3n2C(c2ccccc2)c2ccccc2)c1 [Example 95, 4-(2-{1-benzhydryl-5-chloro-2-[2-({[2-(4-methyl-1H-pyrazol-1-yl)ethyl]sulfonyl}amino)ethyl]-1H-indol-3-yl}ethoxy)benzoic acid] |
| 0.95 | C[C@@H]1CCC[C@H](C)N1CCS(=O)(=O)NCCc1c(CCOc2ccc(C(=O)O)cc2)c2cc(Cl)ccc2n1C(c1ccccc1)c1ccccc1 [Example 96, 4-[2-(1-benzhydryl-5-chloro-2-{2-[({2-[(2R,6S)-2,6-dimethyl-1-piperidinyl]ethyl}sulfonyl)amino]ethyl}-1H-indol-3-yl)ethoxy]benzoic acid] |
| 0.95 | O=C(O)c1ccc(OCCc2c(CCNS(=O)(=O)CCN3CCNC3=S)n(C(c3ccccc3)c3ccccc3)c3ccc(Cl)cc23)cc1 [Example 97, 4-(2-{1-benzhydryl-5-chloro-2-[2-({[2-(2-thioxo-1-imidazolidinyl)ethyl]sulfonyl}amino)ethyl]-1H-indol-3-yl}ethoxy)benzoic acid] |
| 0.12 | O=C(O)c1ccc(CCCc2c(CCNS(=O)(=O)CCN3CCOCC3)n(C(c3ccccc3)c3ccccc3)c3ccc(Cl)cc23)cc1 [Example 100, 4-(3-{1-Benzhydryl-5-chloro-2-[2-(2-morpholin-4-yl-ethanesulfonylamino)-ethyl]-1H-indol-3-yl}-propyl)-benzoic acid] |
| 0.1 | CC1CCCC(C)N1CCS(=O)(=O)NCCc1c(CCCc2ccc(C(=O)O)cc2)c2cc(Cl)ccc2n1C(c1ccccc1)c1ccccc1 (centres unmarked) [Example 101, 4-[3-(1-Benzhydryl-5-chloro-2-{2-[2-(2,6-dimethyl-piperidin-1-yl)-ethanesulfonylamino]-ethyl}-1H-indol-3-yl)-propyl]-benzoic acid] |
| 0.19 | Cc1cc(C)n(CCS(=O)(=O)NCCc2c(CCCc3ccc(C(=O)O)cc3)c3cc(Cl)ccc3n2C(c2ccccc2)c2ccccc2)n1 [Example 102] |
| 1.1 | O=C(O)c1ccc(OCCc2c(CCNS(=O)(=O)CCn3ncnn3)n(C(c3ccccc3)c3ccccc3)c3ccc(Cl)cc23)cc1 [Example 103, 4-(2-{1-benzhydryl-5-chloro-2-[2-(2-tetrazol-2-yl-ethanesulfonylamino)-ethyl]-1H-indol-3-yl}ethoxy)benzoic acid] |
| 1.1 | O=C(O)c1ccc(OCCc2c(CCNS(=O)(=O)CCn3cnnn3)n(C(c3ccccc3)c3ccccc3)c3ccc(Cl)cc23)cc1 [Example 104, 4-(2-{1-benzhydryl-5-chloro-2-[2-(2-tetrazol-1-yl-ethanesulfonylamino)-ethyl]-1H-indol-3-yl}ethoxy)benzoic acid] |
| 0.22 | O=C(O)c1ccc(OCCc2c(CCNS(=O)(=O)Cc3ccc(Cl)c(Cl)c3)n(C(c3ccccc3)c3ccccc3)c3cc(Cl)ccc23)cc1 [Example 106, 4-(2-{1 -Benzhydryl-6-chloro-2-[2-(3,4-dichloro-phenylmethanesulfonylamino)-ethyl]-1H-indol-3-yl}-ethoxy)-benzoic acid] |

| SMILES | IC50 [µM] |
| --- | --- |
| O=C(O)c1ccc(OCCc2c(CCNS(=O)(=O)Cc3c(Cl)cccc3Cl)n(C(c3ccccc3)c3ccccc3)c3ccc(Cl)cc23)cc1 [Example 73, 4-{2-[1-Benzhydryl-5-chloro-2-(2-{[(2-dichlorobenzyl)sulfonyl]amino}ethyl)-1H-indol-3-yl]ethoxy}benzoic acid] | 0.3 |
| O=C(O)c1ccc(OCCc2c(CCNS(=O)(=O)Cc3ccc(Cl)c(Cl)n3)n(C(c3ccccc3)c3ccccc3)c3ccc(Cl)cc23)cc1 [Example 76] | 0.4 |
| O=C(O)c1ccc(OCCc2c(CCNS(=O)(=O)Cc3c(Cl)cccc3Cl)n(C(c3ccccc3)c3ccccc3)c3ccc(Cl)cc23)cc1 [Example 80, 4-{2-[1-Benzhydryl-5-chloro-2-(2-{[(2,6-dichlorobenzyl)sulfonyl]amino}ethyl)-1H-indol-3-yl]ethoxy}benzoic acid] | 3.7 |
| COc1ccccc1SCS(=O)(=O)NCCc1c(CCOc2ccc(C(=O)O)cc2)c2cc(Cl)ccc2n1C(c1ccccc1)c1ccccc1 [Example 83] | 0.45 |
